Patent US20040029886A1, “Dihalopropene compounds, processes for their preparation, compositions comprising them and their use as pesticides” (priority 2001, published 2004)

What was measured:
Type in all cases: in vivo
Set-up in all cases: key: compounds are considered to be active when, at a concentration of 500 ppm or less, their action on the harmful organisms is 50% or more
[1] = test system: larvae of the root gall nematode (Meloidogyne incognita); assay: Example F: root gall nematode, contact action (part A) and soil drench action on cucumber (part B); conditions: 500 ppm or less; part A 6 days exposure, part B root galls on cucumber after 2 weeks (Abbott's formula)
Protocol: (§1) In Examples A to L below, compounds are considered to be active when, at a concentration of 500 ppm or less, their action on the harmful organisms is 50% or more.
Part A of the examination (contact action): in a glass vessel, an aqueous solution of the formulated preparation to be examined was added to about 5000 freshly hatched active (mobile) larvae (2nd development stage) of the root gall nematode (Meloidogyne incognita) (final volume 20 ml). After 6 days of permanent exposure of the nematode larvae, the percentage of the individual larvae immobilized by the action of the preparation was determined in comparison to the untreated controls (nematicidal contact action in percent).
Part B of the examination (soil drench action): to this end, the entire solution from part A of the examination (active compound and pre-treated nematode larvae) was poured into a pot, filled with 60 ml of soil, into which three 9-day-old cucumber plants (Cucumis sativus) had been planted. This drench application reduced the active compound content based on the soil volume to one third of the active compound content in part A of the examination. After 2 weeks in a greenhouse at about 26° C. (watering: twice a day), the root balls of the cucumber plants were carefully washed out of the soil mixture contaminated with nematodes. The number of root galls per plant was counted and compared to the infection of untreated control plants. The reduction of the infection in percent as a criterion for the assessment of the activity was calculated using Abbott's formula (nematicidal soil drench action). The following examples were active: Nos. 6, 7, 29, 32, 34, 44, 356.

[2] = test system: eggs of the American tobacco budworm (Heliothis virescens); assay: Example C: eggs of American tobacco budworm, Petri dish with culture medium; conditions: 500 ppm or less; eggs dipped 5 seconds, 200 μl on culture medium; after 6 days
Protocol: as §1
A Petri dish whose bottom was covered with filter paper and which contained about 5 ml of culture medium was prepared. Pieces of filter paper with about 30, one-day-old eggs of the American tobacco budworm (Heliothis virescens) were dipped for 5 seconds into an aqueous solution of the formulated preparation to be examined and subsequently placed in a Petri dish. A further 200 μl of the aqueous solution were spread over the culture medium. The Petri dish was closed and then stored at about 25° C. in a climatized chamber. After 6 days of storage, the effect of the preparation on the eggs and any larvae which may have hatched from these (mortality) was determined. The following examples were active: Nos. 6, 27, 28, 29, 31, 35, 39, 43, 45, 59, 97, 226, 227, 228, 229, 351, 356, 357, 592, 593, 595, 949, 1001, 1126, 1129, 1132.

[3] = test system: L2 larvae of the sugar beet armyworm (Spodoptera exigua); assay: Example H: L2 larvae of sugar beet armyworm, Petri dish with culture medium; conditions: 500 ppm or less, after 6 days
Protocol: as §1
A Petri dish whose bottom was covered with filter paper and which contained […] of culture medium was prepared. Five L2 larvae of the sugar beet armyworm (Spodoptera exigua) were counted into a small beaker. 200 μl of an aqueous solution of the formulated preparation to be examined were pipetted into the beaker. The treated larvae were then poured into the Petri dish and a further 200 μl of the aqueous solution were distributed over the culture medium. The Petri dish was closed and then stored at 25° C. in a climatized chamber. After 6 days of storage, the effect of the preparation on the larvae (mortality) was determined. The following examples were active: Nos. 31, 97, 226, 227, 228, 229, 351, 356, 357, 592, 593, 595, 949, 1001, 1126, 1129, 1132.

[4] = test system: eggs of the corn rootworm (Diabrotica undecimpunctata); assay: Example E: eggs of corn rootworm, Petri dish with maize corn; conditions: 500 ppm or less, after 6 days
Protocol: as §1
A Petri dish, half of whose bottom was covered with filter paper and which contained a germinated maize corn on a moist cotton pad, was prepared. About 50, 4-5 day-old eggs of the corn rootworm (Diabrotica undecimpunctata) were transferred onto the filter paper. Three drops of 200 μl of an aqueous solution of the formulated preparation to be examined were pipetted onto the eggs, and the rest was pipetted onto the maize corn. The Petri dish was closed and then stored at about 25° C. in a climatized chamber. After 6 days of storage, the effect of the preparation on the eggs and any larvae which may have hatched from these (mortality) was determined. The following examples were active: No. 7.

[5] = test system: L2 larvae of the Egyptian cotton leaf worm (Spodoptera littoralis); assay: Example D: L2 larvae of Egyptian cotton leaf worm, Petri dish with culture medium; conditions: 500 ppm or less, after 6 days
Protocol: as §1
A Petri dish whose bottom was covered with filter paper and which contained about 5 ml of culture medium was prepared. Five L2 larvae of the Egyptian cotton leaf worm (Spodoptera littoralis) were counted into small beakers. 200 μl of an aqueous solution of the formulated preparation to be examined were pipetted into the beaker. The treated larvae were then poured into the Petri dish, and a further 200 μl of the aqueous solution were distributed over the culture medium. The Petri dish was closed and then stored at about 25° C. in a climatized chamber. After 6 days of storage, the effect of the preparation on the larvae (mortality) was determined. The following examples were active: Nos. 27, 28, 29, 39, 43, 45, 59.

[6] = test system: spider mites (Tetranychus urticae); assay: Example A: spider mites on bean leaf, dip treatment; conditions: 500 ppm or less; leaf and mites dipped 5 seconds; after 6 days
Source text: as §1
Cut stems of bean plants (Phaseolus vulgaris) carrying one leaf were transferred into brown glass bottles filled with tap water and subsequently populated with approximately 100 spider mites (Tetranychus urticae). The plant leaf and the spider mites were then dipped for 5 seconds into an aqueous solution of the formulated preparation to be examined. After the solution had run off, plants and animals were stored in a climatized chamber (16 hours of light/day, 25° C., 40-60% relative atmospheric humidity). After 6 days of storage, the effect of the preparation on all stages of the spider mites was determined. The following examples were active: Nos. 43, 45, 97, 1132.

[7] = test system: black bean aphids (Aphis fabae); assay: Example B: black bean aphids on field bean, dip treatment; conditions: 500 ppm or less; plants and aphids dipped 5 seconds; after 3 and 6 days
Source text: as §1
Germinated field bean seeds (Vicia faba) with radicles were transferred into brown glass bottles filled with tap water and subsequently populated with approximately 100 black bean aphids (Aphis fabae). Plants and aphids were then dipped for 5 seconds into an aqueous solution of the formulated preparation to be examined. After the solution had run off, plants and animals were stored in an acclimatized chamber (16 hours of light/day, 25° C., 40-60% relative atmospheric humidity). After 3 and 6 days of storage, the effect of the preparation on the aphids (mortality) was determined. The following examples were active: Nos. 33, 36, 357, 1126.

[8] = test system: L2 larvae of the sugar beet armyworm (Spodoptera exigua); assay: Example I: sugar beet armyworm L2 larvae on sprayed cotton leaves; conditions: 500 ppm or less, after 4 days
Protocol: as §1
Cotton plants were sprayed with an aqueous solution of the formulated preparation to be examined. After drying, leaves were cut off, placed into a Petri dish and populated with 5 L2 larvae of the sugar beet armyworm (Spodoptera exigua). After 4 days of storage at about 23° C., the effect of the preparation on the larvae (mortality) was determined. The following examples were active: Nos. 27, 28, 45, 59.

[9] = test system: larvae of the diamondback moth (Plutella xylostella); assay: Example L: diamondback moth larvae on sprayed cabbage leaf; conditions: 500 ppm or less, after 4 days
Protocol: as §1
A cabbage leaf was sprayed with an aqueous solution of the formulated preparation to be examined. After drying, the treated leaf was populated with larvae of the diamondback moth (Plutella xylostella). After 4 days of storage at about 25° C., the effect of the preparation on the larvae (mortality) was determined. The following examples were active: Nos. 27, 28, 45.

CC(=O)c1cc(OCC=C(Cl)Cl)cc(Cl)c1OCCCc1ccc(Cl)cc1 [compound 6]
nematicidal contact action / nematicidal soil drench action [1]: active | effect of the preparation on the eggs and any larvae hatched (mortality) [2]: active

CCNC(=O)c1cc(OCC=C(Cl)Cl)cc(Cl)c1OCCCOc1ccc(C(F)(F)F)cn1 [compound 34]
nematicidal contact action / nematicidal soil drench action [1]: active

CSCc1noc(-c2cc(OCC=C(Cl)Cl)cc(Cl)c2OCCCOc2ccc(C(F)(F)F)cn2)n1 [compound 351]
effect of the preparation on the eggs and any larvae hatched (mortality) [2]: active | effect of the preparation on the larvae (mortality) [3]: active

C=Cc1cc(OCC=C(Cl)Cl)cc(Cl)c1OCCCOc1ccc(C(F)(F)F)cn1 [compound 595]
effect of the preparation on the eggs and any larvae hatched (mortality) [2]: active | effect of the preparation on the larvae (mortality) [3]: active

C#Cc1cc(OCC=C(Cl)Cl)cc(Cl)c1OCCCOc1ccc(C(F)(F)F)cn1 [compound 229]
effect of the preparation on the eggs and any larvae hatched (mortality) [2]: active | effect of the preparation on the larvae (mortality) [3]: active

CC(CO)NC(=O)c1cc(OCC=C(Cl)Cl)cc(Cl)c1OCCCOc1ccc(C(F)(F)F)cn1 (stereo not drawn) [compound 32]
nematicidal contact action / nematicidal soil drench action [1]: active

OCC#Cc1cc(OCC=C(Cl)Cl)cc(Cl)c1OCCCOc1ccc(C(F)(F)F)cn1 [compound 227]
effect of the preparation on the eggs and any larvae hatched (mortality) [2]: active | effect of the preparation on the larvae (mortality) [3]: active

COC(=O)c1cc(OCC=C(Cl)Cl)cc(Cl)c1OCCCc1ccc(Cl)cc1 [compound 7]
nematicidal contact action / nematicidal soil drench action [1]: active | effect of the preparation on the eggs and any larvae hatched (mortality) [4]: active

CON(C)C(=O)c1cc(OCC=C(Cl)Cl)cc(Cl)c1OCCCOc1ccc(C(F)(F)F)cn1 [compound 35]
effect of the preparation on the eggs and any larvae hatched (mortality) [2]: active

CCOC(=O)C=Cc1cc(OCC=C(Cl)Cl)cc(Cl)c1OCCCOc1ccc(C(F)(F)F)cn1 [compound 592]
effect of the preparation on the eggs and any larvae hatched (mortality) [2]: active | effect of the preparation on the larvae (mortality) [3]: active

CC(=NO)c1cc(OCC=C(Cl)Cl)cc(Cl)c1OCCCCOc1ncc(Cl)cc1Cl [compound 44]
nematicidal contact action / nematicidal soil drench action [1]: active

CON=C(C)c1cc(OCC=C(Cl)Cl)cc(Cl)c1OCCCOc1ccc(C(F)(F)F)cn1 [compound 29]
nematicidal contact action / nematicidal soil drench action [1]: active | effect of the preparation on the larvae (mortality) [5]: active | effect of the preparation on the eggs and any larvae hatched (mortality) [2]: active

NC(=S)c1cc(OCC=C(Cl)Cl)cc(Cl)c1OCCCOc1ccc(C(F)(F)F)cn1 [compound 31]
effect of the preparation on the eggs and any larvae hatched (mortality) [2]: active | effect of the preparation on the larvae (mortality) [3]: active

CC(=O)c1cc(OCC=C(Cl)Cl)cc(Cl)c1OCCCCOc1ncc(Cl)cc1Cl [compound 43]
effect of the preparation on the larvae (mortality) [5]: active | effect of the preparation on the eggs and any larvae hatched (mortality) [2]: active | effect of the preparation on all stages of the spider mites [6]: active

Cc1noc(-c2cc(OCC=C(Cl)Cl)cc(Cl)c2OCCCOc2ccc(C(F)(F)F)cn2)n1 [compound 357]
effect of the preparation on the aphids (mortality) [7]: active | effect of the preparation on the eggs and any larvae hatched (mortality) [2]: active | effect of the preparation on the larvae (mortality) [3]: active

CN(C)C(=O)c1cc(OCC=C(Cl)Cl)cc(Cl)c1OCCCOc1ccc(C(F)(F)F)cn1 [compound 36]
effect of the preparation on the aphids (mortality) [7]: active

CON=C(C)c1cc(OCC=C(Cl)Cl)cc(Cl)c1OCCCCOc1ncc(Cl)cc1Cl [compound 45]
effect of the preparation on the larvae (mortality) [5]: active | effect of the preparation on the eggs and any larvae hatched (mortality) [2]: active | effect of the preparation on all stages of the spider mites [6]: active | effect of the preparation on the larvae (mortality) [8]: active | effect of the preparation on the larvae (mortality) [9]: active

COCC#Cc1cc(OCC=C(Cl)Cl)cc(Cl)c1OCCCOc1ccc(C(F)(F)F)cn1 [compound 228]
effect of the preparation on the eggs and any larvae hatched (mortality) [2]: active | effect of the preparation on the larvae (mortality) [3]: active

COC(=O)C=Cc1cc(OCC=C(Cl)Cl)cc(Cl)c1OCCCOc1ccc(C(F)(F)F)cn1 [compound 593]
effect of the preparation on the eggs and any larvae hatched (mortality) [2]: active | effect of the preparation on the larvae (mortality) [3]: active
